Test results as given in patent US20220017520A1, “MACROCYCLIC COMPOUND AS CDK INHIBITOR, PREPARATION METHOD THEREFOR, AND USE THEREOF IN MEDICINE” (Keythera (Suzhou) Pharmaceuticals Co. Ltd., priority 2018, published 2022).

How the values were obtained:
MCF-7 cells = test: In vitro cell proliferation assay by BrdU method; assay type: cell-based; details: 72 hours, 10% FBS
Method: In Vitro Cell Inhibitory Activity of the Compound of the Present Invention
Experimental method: Cell proliferation assay was carried out by BrdU method (BrdU cell proliferation assay kit, Cell Signaling Technology Co.)
Preparation of gradient dilution solution of test compound: the 10 mM stock solution of test compound was subjected to 4-fold serial gradient dilution with DMSO to obtain solutions with a concentration of 2.5 mM, […], respectively. 2 μL of DMSO-diluted compound was added to 198 μL of culture medium containing 10% FBS to obtain 10-fold test compound, wherein the maximum concentration of the test compound was 10 μM, the DMSO concentration was 1%, with a total of 7 concentration gradients.
MCF-7 culture medium: DMEM+10% FBS+0.01 mg/mL insulin
(1) Cells grown to 80% (in exponential growth phase) were digested with pancreatin, and were collected by centrifugation. MDA-MB-435S cells and U87MG cells were re-suspended in a FBS-free culture medium, counted and inoculated to a 96-well plate; MDA-MB-435S cells were inoculated at 3000 cells/well/81 μL, and U87MG cells were inoculated at 4000 cells/well/81 μL. MCF-7 cells were resuspended in a culture medium containing 1% FBS, counted and inoculated to a 96-well plate at 4000 cell/well/82 μL. The cells were incubated in a cell incubator at 37° C.
(2) After 24 hours of incubation, FBS (9 μL) was added to each well of the MDA-MB-435S cells and U87MG cells, and 8 μL of FBS was added to each well of the MCF-7 cells, so as to obtain a final FBS concentration of 10%.
(3) A different concentration of 10-fold test compound (10 μL) was added to each well to obtain a final concentration of test compound of 10 μM, 2.5 μM, 625 nM, 156 nM, 39 nM, 9.8 nM or 2.5 nM, respectively, with 3 repeated wells/group, and the cells were incubated at 37° C. for 72 hours.
(4) 10-fold BrdU solution (10 μL) was added to each well, and the cells were incubated in the incubator for 4 hours, followed by discarding the culture medium.
(5) Fixing/denaturation solution (10 μL) was added to each well, and the cells were incubated at room temperature for 30 minutes, followed by discarding the solution.
(6) 1-fold detection antibody solution (100 μL) was added to each well, the cells were incubated at room temperature for 1 hour, followed by discarding the solution, and the cells were washed with 1-fold washing solution (200 μL/well) three times.
(7) 1-fold HRP-labelled secondary antibody solution (100 μL) was added to each well, the cells were incubated at room temperature for 30 minutes, followed by discarding the solution, and the cells were washed with 1-fold washing solution (200 μL/well) three times.
(8) TMB substrate solution (100 μL) was added to each well, and the cells were incubated at room temperature for 30 minutes.
(9) Stop solution (100 μL) was added to each well, and the OD value at 450 nm was measured by a microplate reader.
1) Cell survival rate (%)=(ODtest compound−ODblank control)/(ODnormal cell control−ODblank control)×100%,
2) The data was processed by GraphPad Prism 5 software to obtain the curve and IC50 values.

metastatic breast cancer = details: drug alone, patients with hormone receptor-positive metastatic breast cancer, Phase I; cited from earlier work

Substance: Abemaciclib [LY2834219, reference compound]
- IC50 (MCF-7 cells): 120 nM
- clinical benefit rate (metastatic breast cancer): 61%
